In the assay the target is human μ-opiate receptor (Homo sapiens, UniProt P35372). The assay can be described thus: Affinity for the human μ-opiate receptor ([3H]-naloxone displacement, SPA, CHO-K1 membrane preparation). To be noted: for inhibition at 1 µM: read-out: μ-Opioid receptor, % inhibition [1 μM]; for Ki: read-out: μ-Opioid receptor, Ki. It is filed as binding.
Chain of human μ-opiate receptor (P35372 whole entry): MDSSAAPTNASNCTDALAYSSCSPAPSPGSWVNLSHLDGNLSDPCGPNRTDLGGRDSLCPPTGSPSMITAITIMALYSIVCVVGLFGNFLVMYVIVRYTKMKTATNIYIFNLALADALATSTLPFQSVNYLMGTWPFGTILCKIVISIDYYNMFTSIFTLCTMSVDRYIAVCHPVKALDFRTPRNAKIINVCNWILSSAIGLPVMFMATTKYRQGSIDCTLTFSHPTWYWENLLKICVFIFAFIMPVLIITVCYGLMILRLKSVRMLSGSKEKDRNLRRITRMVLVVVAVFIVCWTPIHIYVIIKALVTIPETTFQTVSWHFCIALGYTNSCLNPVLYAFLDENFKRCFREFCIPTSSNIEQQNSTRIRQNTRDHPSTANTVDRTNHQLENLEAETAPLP

As a reminder, the inhibition is the drop in the measured response relative to a control, in per cent. Broadly, the Ki is a measure of affinity in units of concentration, obtained from inhibition or displacement. `CN(C)C(c1ccccc1)C1CCC(CCNC(=O)c2c(Cl)cccc2Cl)CC1` (stereo not drawn) [compound 413, 2,6-dichloro-N-{2-[4-(dimethylamino-phenyl-methyl)-cyclohexyl]-ethyl}-benzamide]: the inhibition at 1 µM worked out at 81% and the Ki was 31 nM.
Regarding `COc1ccccc1C(=O)NCCC1CCC(C(c2ccccc2)N(C)C)CC1` (stereo not drawn) [compound 414, N-{2-[4-(dimethylamino-phenyl-methyl)-cyclohexyl]-ethyl}-2-methoxy-benzamide], the inhibition at 1 µM is 99% and the Ki was determined as 4.6 nM.
On to `COc1ccccc1C(=O)NCCC1CCC(C(c2cccc(F)c2)N(C)C)CC1` (stereo not drawn) [compound 415, N-(2-{4-[dimethylamino-(3-fluoro-phenyl)-methyl]-cyclohexyl}-ethyl)-2-methoxy-benzamide], for which the inhibition at 1 µM was 99% and the Ki stood at 5.1 nM.
On to `CN(C)C(c1ccccc1)C1CCC(CCNC(=O)c2ccc(Cl)c(Cl)c2)CC1` (stereo not drawn) [compound 416, 3,4-dichloro-N-{2-[4-(dimethylamino-phenyl-methyl)-cyclohexyl]-ethyl}-benzamide], for which the inhibition at 1 µM was 86% and the Ki came to 19 nM.
For `Cc1ccccc1C(=O)NCCC1CCC(C(c2ccc(Cl)cc2)N(C)C)CC1` (stereo not drawn) [compound 419, N-(2-{4-[(4-chloro-phenyl)-dimethylamino-methyl]-cyclohexyl}-ethyl)-2-methyl-benzamide], in that order: 86% and 32 nM.
For the molecule `Cc1ccccc1C(=O)NCCC1CCC(C(c2cccc(F)c2)N(C)C)CC1` (stereo not drawn) [compound 420, N-(2-{4-[dimethylamino-(3-fluoro-phenyl)-methyl]-cyclohexyl}-ethyl)-2-methyl-benzamide], the inhibition at 1 µM came out at 94% and the Ki stood at 16 nM.
For the molecule `CN(C)C(c1ccccc1)C1CCC(CCNC(=O)c2ccc(C#N)cc2)CC1` (stereo not drawn) [compound 421, 4-cyano-N-{2-[4-(dimethylamino-phenyl-methyl)-cyclohexyl]-ethyl}-benzamide], the inhibition at 1 µM amounted to 80% and the Ki is 91 nM.
For `CN(C)C(c1cccs1)C1CCC(CCNC(=O)c2cccc(Cl)c2)CC1` (stereo not drawn) [compound 424, 3-chloro-N-{2-[4-(dimethylamino-thiophen-2-yl-methyl)-cyclohexyl]-ethyl}-benzamide], in that order: 99% and 2.7 nM.
In the case of `CN(C)C(c1cccs1)C1CCC(CCNC(=O)c2ccccc2Cl)CC1` (stereo not drawn) [compound 425, 2-chloro-N-{2-[4-(dimethylamino-thiophen-2-yl-methyl)-cyclohexyl]-ethyl}-benzamide], the inhibition at 1 µM is 94% and the Ki was 6 nM.
On to `CN(C)C(c1cccs1)C1CCC(CCNC(=O)c2ccc(F)cc2)CC1` (stereo not drawn) [compound 426, N-{2-[4-(dimethylamino-thiophen-2-yl-methyl)-cyclohexyl]-ethyl}-4-fluoro-benzamide], for which the inhibition at 1 µM is 99% and the Ki was found to be 5.8 nM.
As for `CN(C)C(c1ccc(F)cc1)C1CCC(CCNC(=O)c2ccccc2F)CC1` (stereo not drawn) [compound 427, N-(2-{4-[dimethylamino-(4-fluoro-phenyl)-methyl]-cyclohexyl}-ethyl)-2-fluoro-benzamide], the inhibition at 1 µM is 84% and the Ki was 40 nM.
Take `CN(C)C(c1cccs1)C1CCC(CCNC(=O)c2ccccc2F)CC1` (stereo not drawn) [compound 428, N-{2-[4-(dimethylamino-thiophen-2-yl-methyl)-cyclohexyl]-ethyl}-2-fluoro-benzamide]: the inhibition at 1 µM was 97% and the Ki was found to be 5.4 nM.
In the case of `Cc1cccc(C(=O)NCCC2CCC(C(c3ccc(F)cc3)N(C)C)CC2)c1` (stereo not drawn) [compound 429, N-(2-{4-[dimethylamino-(4-fluoro-phenyl)-methyl]-cyclohexyl}-ethyl)-3-methyl-benzamide], the inhibition at 1 µM worked out at 88% and the Ki was found to be 55 nM.
For `Cc1cccc(C(=O)NCCC2CCC(C(c3cccs3)N(C)C)CC2)c1` (stereo not drawn) [compound 430, N-{2-[4-(dimethylamino-thiophen-2-yl-methyl)-cyclohexyl]-ethyl}-3-methyl-benzamide], the inhibition at 1 µM turned out to be 101% and the Ki is 4.4 nM.
As to `CN(C)C(c1cccs1)C1CCC(CCNC(=O)c2c(Cl)cccc2Cl)CC1` (stereo not drawn) [compound 431, 2,6-dichloro-N-{2-[4-(dimethylamino-thiophen-2-yl-methyl)-cyclohexyl]-ethyl}-benzamide], the inhibition at 1 µM turned out to be 93% and the Ki stood at 26 nM.
In the case of `COc1ccccc1C(=O)NCCC1CCC(C(c2ccc(F)cc2)N(C)C)CC1` (stereo not drawn) [compound 432, N-(2-{4-[dimethylamino-(4-fluoro-phenyl)-methyl]-cyclohexyl}-ethyl)-2-methoxy-benzamide], the inhibition at 1 µM was 95% and the Ki came to 18 nM.
As for `CN(C)C(c1ccccc1)C1CCC(CCNC(=O)c2cc(F)cc(F)c2)CC1` (stereo not drawn) [compound 433, N-{2-[4-(dimethylamino-phenyl-methyl)-cyclohexyl]-ethyl}-3,5-difluoro-benzamide], the inhibition at 1 µM was found to be 89% and the Ki worked out at 3.8 nM.
Take `CN(C)C(c1ccc(Cl)cc1)C1CCC(CCNC(=O)c2cc(F)cc(F)c2)CC1` (stereo not drawn) [compound 434, N-(2-{4-[(4-chloro-phenyl)-dimethylamino-methyl]-cyclohexyl}-ethyl)-3,5-difluoro-benzamide]: the inhibition at 1 µM amounted to 85% and the Ki came out at 24 nM.
On to `CN(C)C(c1cccc(F)c1)C1CCC(CCNC(=O)c2cc(F)cc(F)c2)CC1` (stereo not drawn) [compound 435, N-(2-{4-[dimethylamino-(3-fluoro-phenyl)-methyl]-cyclohexyl}-ethyl)-3,5-difluoro-benzamide], for which the inhibition at 1 µM stood at 99% and the Ki came out at 14 nM.
Regarding `CN(C)C(c1ccc(Cl)cc1)C1CCC(CCNC(=O)c2ccc(F)cc2F)CC1` (stereo not drawn) [compound 436, N-(2-{4-[(4-chloro-phenyl)-dimethylamino-methyl]-cyclohexyl}-ethyl)-2,4-difluoro-benzamide], the inhibition at 1 µM was 91% and the Ki worked out at 29 nM.
`CN(C)C(c1ccc(Cl)cc1)C1CCC(CCNC(=O)c2cc(F)c(Cl)cc2Cl)CC1` (stereo not drawn) [compound 437, 2,4-dichloro-N-(2-{4-[(4-chloro-phenyl)-dimethylamino-methyl]-cyclohexyl}-ethyl)-5-fluoro-benzamide]: the inhibition at 1 µM is 80% and the Ki turned out to be 100 nM.
The matching figures for `CN(C)C(c1cccs1)C1CCC(CCNC(=O)c2cc(F)c(Cl)cc2Cl)CC1` (stereo not drawn) [compound 440, 2,4-dichloro-N-{2-[4-(dimethylamino-thiophen-2-yl-methyl)-cyclohexyl]-ethyl}-5-fluoro-benzamide]: 95% and 15 nM.
Consider `CN(C)C(c1ccc(Cl)cc1)C1CCC(CCNC(=O)c2cccnc2Cl)CC1` (stereo not drawn) [compound 441, 2-chloro-N-(2-{4-[(4-chloro-phenyl)-dimethylamino-methyl]-cyclohexyl}-ethyl)-nicotinamide], for which the inhibition at 1 µM came to 83% and the Ki came out at 200 nM.
In the case of `CN(C)C(c1ccc(F)cc1)C1CCC(CCNC(=O)c2ccc3ccccc3c2)CC1` (stereo not drawn) [compound 442, naphthalene-2-carboxylic acid (2-{4-[dimethylamino-(4-fluoro-phenyl)-methyl]-cyclohexyl}-ethyl)-amide], the inhibition at 1 µM was 86% and the Ki turned out to be 110 nM.
Take `CCCc1ccc(C(=O)NCCC2CCC(C(c3cccs3)N(C)C)CC2)cc1` (stereo not drawn) [compound 443, N-{2-[4-(dimethylamino-thiophen-2-yl-methyl)-cyclohexyl]-ethyl}-4-propyl-benzamide]: the inhibition at 1 µM stood at 96% and the Ki was determined as 40 nM.
For `CN(C)C(c1ccccc1)C1CCC(CCNC(=O)c2ccc(F)c(F)c2)CC1` (stereo not drawn) [compound 444, N-{2-[4-(dimethylamino-phenyl-methyl)-cyclohexyl]-ethyl}-3,4-difluoro-benzamide], in that order: 101% and 11 nM.
Regarding `CN(C)C(c1ccc(Cl)cc1)C1CCC(CCNC(=O)c2ccc(F)c(F)c2)CC1` (stereo not drawn) [compound 445, N-(2-{4-[(4-chloro-phenyl)-dimethylamino-methyl]-cyclohexyl}-ethyl)-3,4-difluoro-benzamide], the inhibition at 1 µM stood at 86% and the Ki stood at 69 nM.
In the case of `CN(C)C(c1cccs1)C1CCC(CCNC(=O)c2ccc(F)c(F)c2)CC1` (stereo not drawn) [compound 446, N-{2-[4-(dimethylamino-thiophen-2-yl-methyl)-cyclohexyl]-ethyl}-3,4-difluoro-benzamide], the inhibition at 1 µM came out at 99% and the Ki was 6.4 nM.
As for `COc1cccc(C(=O)NCCC2CCC(C(c3ccc(F)cc3)N(C)C)CC2)c1` (stereo not drawn) [compound 447, N-(2-{4-[dimethylamino-(4-fluoro-phenyl)-methyl]-cyclohexyl}-ethyl)-3-methoxy-benzamide], the inhibition at 1 µM was 83% and the Ki amounted to 130 nM.
Take `CN(C)C(c1ccccc1)C1CCC(CCNC(=O)C(c2ccccc2)c2ccccc2)CC1` (stereo not drawn) [compound 448, N-{2-[4-(dimethylamino-phenyl-methyl)-cyclohexyl]-ethyl}-2,2-diphenyl-acetamide]: the inhibition at 1 µM stood at 95% and the Ki is 33 nM.
The matching figures for `CN(C)C(c1ccccc1)C1CCC(CCNC(=O)C2(c3ccc(Cl)cc3)CCCC2)CC1` (stereo not drawn) [compound 449, 1-(4-chloro-phenyl)-cyclopentane-carboxylic acid {2-[4-(dimethylamino-phenyl-methyl)-cyclohexyl]-ethyl}-amide]: 88% and 36 nM.
With `CN(C)C(c1ccccc1)C1CCC(CCNC(=O)COCc2ccccc2)CC1` (stereo not drawn) [compound 450, 2-benzyloxy-N-{2-[4-(dimethylamino-phenyl-methyl)-cyclohexyl]-ethyl}-acetamide], the inhibition at 1 µM was determined as 89% and the Ki was found to be 81 nM.
The matching figures for `CN(C)C(c1ccccc1)C1CCC(CCNC(=O)Cc2ccccc2)CC1` (stereo not drawn) [compound 451, N-{2-[4-(dimethylamino-phenyl-methyl)-cyclohexyl]-ethyl}-2-phenyl-acetamide]: 92% and 24 nM.
